According to patent US11214787B2, “Modified beta-lactamases and methods and uses related thereto” (priority 2010, dated 2022):

Assay type: in vivo
Conditions: beagle dogs; single dose ceftriaxone 30 mg/kg i.v., without beta-lactamase
Procedure: The capability of Bacillus licheniformis D276N mutant beta-lactamase enzyme to inactivate ceftriaxone (CRO) which has been excreted into the gastrointestinal tract during parenteral therapy was investigated in a dog model. Laboratory beagles of the study have a nipple valve surgically inserted in jejunum approximately 170 cm distal to pylorus enabling collection of samples for the analysis. […] Five beagle dogs were utilized in each experiment.
The study was performed as two sequential treatments: In the first treatment (control experiment without beta-lactamase therapy), a single dose of ceftriaxone (30 mg of ceftriaxone (CRO) per kg of body weight which corresponds to about 1 gram dose of CRO in humans) was administered intravenously minutes after the first feeding of the dogs. Jejunal samples were collected at various time points during ten hours. The dogs were fed again five hours and forty minutes after the ceftriaxone administration in order to induce the biliary excretion of ceftriaxone accumulated in gallbladder.
Jejunal chyme samples were immediately freezed and stored at −20° C. to await the analysis. Chyme samples were pretreated with perchloric-citric acid in order to precipitate interfering substances. […] A reverse-phase high-pressure chromatography method with UV detection was used for the quantification of ceftriaxone in supernatants. […]

CO/N=C(\C(=O)N[C@@H]1C(=O)N2C(C(=O)O)=C(CSc3nc(=O)c(=O)[nH]n3C)CS[C@H]12)c1csc(N)n1 [ceftriaxone]
highest jejunal ceftriaxone concentration: about 1500 micrograms per gram of jejunal chyme | time of highest jejunal ceftriaxone concentration after injection: 60 min
